US20230130103A1, “TARGETED PHARMACOLOGICAL THERAPEUTICS IN UVEAL MELANOMA” (Washington University, priority 2017, published 2023)

Key:
92.1 cells [1] = experiment: Melanocytic re-differentiation (morphology, pigmentation, immunostaining); assay type: cell-based, Human; conditions: 7 d GSK503 and 3 d FR
Procedure: FIG. 5A Morphological changes elicited by FR. UM cell lines were treated 3 d with FR and imaged by phase contrast microscopy. FR caused UM cells driven by constitutively active Gαq (92.1 and Mel202) to lose their characteristic spindle shaped and assume a stellate shape with multiple projections. FR had no effect on BRAF-driven UM cells (OCM-1A). FIG. 5B Melanocytic differentiation of FR-treated UM cells indicated by pigmentation. UM cell lines were treated 3 d with FR. Cells were pelleted and examined macroscopically. […] Scale bar=50 μm.
(§1) Gαq-mutant 92.1 UM cells were treated with FR or vehicle, and RNA was collected 1 and 3 d after treatment for RNA-Seq analysis. FIG. 7A Unsupervised principal component analysis identified FR treatment and time in culture as the two main separable factors contributing to changes in gene expression. […] FIG. 7D FR-repressed genes identified as targets of the polycomb repressive complex 2 by Geneset enrichment analysis. FIG. 7E The Ezh1/2 inhibitor GSK503 blocks the morphological differentiation elicited by FR. 92.1 UM cells were treated 7 d with GSK503 and 3 d with FR and then imaged by phase contrast microscopy. […] 92.1 cells were treated 7 d with GSK503 and 3 d with FR and pelleted. FIG. 7G PRC2 inhibition by GSK503.
Cell fixation was carried out by adding an equal volume of 2×fixative (PBS with 4% paraformaldehyde and 0.4% glutaraldehyde) to UM cells in RPMI growth medium. After 15 min at 37° C., cells were permeabilized with 0.1% Triton X-100 in PBS for 5 min, washed with PBS, and blocked with 2% fish gelatin (Sigma-Aldrich) in PBS. Primary and secondary antibodies were diluted in 2% fish gelatin in PBS. Primary antibodies included mouse monoclonal anti-pre-melanosomal protein (One World Lab, San Diego, Calif.), rabbit polyclonal anti-tyrosinase (One World Lab), rabbit polyclonal anti-dopachrome tautomerase (One World Lab), rabbit polyclonal anti-S100 (DakoCytomation, Denmark), and mouse monoclonal anti-BrdU (Life Technologies). Secondary antibodies were Alexa-fluor conjugates (Life Technologies), and the mounting agent was ProLong Gold (Life Technologies). Cell morphology was assessed by phase contrast imaging with an inverted microscope (Olympus IX72) using a 10×objective.

92.1 cells [2] = experiment: Immunoblot of histone H3 lysine 27 trimethylation (PRC2 inhibition); assay type: cell-based, Human; conditions: 7 d GSK503, FIG. 7G
Procedure: as §1
For standard immunoblots, cells were lysed and cleared in radioimmunoprecipitation assay buffer (150 mM sodium chloride, 1% Triton-X100, 0.5% sodium deoxycholate, 0.1% sodium dodecyl sulfate, 50 mM Tris, pH 8.0) with 1×Complete Protease Inhibitor (Roche, cat.11697498001). Histones were isolated from cells using the Active Motif Histone Purification Mini Kit (cat.40026, Active Motif, Carlsbad, Calif.). Lysates were resolved on 15% SDS-PAGE gels and transferred to Immobilon(P) PVDF membrane (Milipore, cat.IPVH00010). […] Following incubation, membranes were washed at least three times with TBST and signals were detected using LI-COR Odyssey model 9120 imaging system (LI-COR). […]

## Cc1cc(C)c(CNC(=O)c2cc(-c3ccc(N4CCN(C)CC4)nc3)cc3c2c(C)cn3C(C)C)c(=O)[nH]1 [GSK503, reference compound]
92.1 cells [1]; FIG. 7E
  FR-induced re-differentiation (morphology): blocked the ability of FR to re-differentiate these cells
92.1 cells [1]; FIG. 7F
  pigmentation of FR-treated cells: decreased pigmentation
92.1 cells [2]
  histone H3 lysine 27 trimethylation (immunoblot): reduced histone H3 lysine 27 trimethylation
